The results in this text go back to patent US20190085024A1, “Alpha-Ketoamide Inhibitors Of Cysteine Proteases” (Phelix Therapeutics, priority 2017, published 2019).

The target in one assay is Cathepsin B (Homo sapiens, UniProt P07858). The assay can be described thus: Cathepsin B enzyme assay. The conditions noted are these: Cat B (μM), Ki by Morrison equation; pH 6.0, substrate Z-Phe-Arg-Amc.
For another assay, the target named is Cathepsin L (Homo sapiens, UniProt P07711). Kind of assay: Cathepsin L enzyme assay. The format is biochemical. The conditions noted are these: Ki by Morrison equation; pH 5.5, substrate Z-Phe-Arg-Amc; read-out: Cat L. From the text: Two wells contained DMSO only for controls.
Cathepsin L, sequence (P07711 114-333, species assumed): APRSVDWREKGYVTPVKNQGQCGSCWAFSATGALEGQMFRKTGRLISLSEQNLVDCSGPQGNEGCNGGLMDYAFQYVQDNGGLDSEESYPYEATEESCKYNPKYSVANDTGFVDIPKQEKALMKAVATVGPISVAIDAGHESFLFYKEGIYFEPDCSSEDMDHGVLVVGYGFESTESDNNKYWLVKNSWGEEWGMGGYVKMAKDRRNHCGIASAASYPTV
Velocity was converted to μM/sec.

A further assay has as its target Calpain. Kind of assay: Calpain enzyme assay. Particulars: Ki by Morrison equation; pH 7.5, 5 mM CaCl2. The format is biochemical.

Turning to `CCC(C)C(NC(=O)C(=O)C(C)NC(=O)C(Cc1cccc(C)c1)NC(=O)Cc1ccccc1)C(=O)NC(C)(C)C(=O)O` (centres unmarked) [PHELIX175, 5-(sec-butyl)-2,2,9-trimethyl-12-(3-methylbenzyl)-4,7,8,11,14-pentaoxo-15-phenyl-3,6,10,13-tetraazapentadecanoic acid], the Ki at Cathepsin B is 0.0069 µM; on Cathepsin L, 0.108 µM.

As for `CCC(C)C(NC(=O)C(=O)C(C)NC(=O)C(Cc1ccc(C(C)(C)C)cc1)NC(=O)Cc1ccccc1)C(=O)NC(C)(C)C(=O)O` (centres unmarked) [PHELIX167, 5-(sec-butyl)-12-(4-(tert-butyl)benzyl)-2,2,9-trimethyl-4,7,8,11,14-pentaoxo-15-phenyl-3,6,10,13-tetraazapentadecanoic acid], the Ki stood at 0.273 µM on Cathepsin B and 2.6 µM on Cathepsin L.

Turning to `CC(NC(=O)C(Cc1ccccc1)NC(=O)Cc1ccccc1)C(=O)C(=O)NC(CC1CCCCC1)C(=O)NC(C)(C)C(=O)O` (centres unmarked) [PHELIX177, 12-benzyl-5-(cyclohexylmethyl)-2,2,9-trimethyl-4,7,8,11,14-pentaoxo-15-phenyl-3,6,10,13-tetraazapentadecanoic acid], the values for the Ki on Cathepsin B and at Cathepsin L were 0.0012 µM and 0.0922 µM, respectively.

Regarding `CCC(C)C(NC(=O)C(=O)C(C)NC(=O)C(Cc1ccc(-c2ccccc2)cc1)NC(=O)Cc1ccccc1)C(=O)NC(C)(C)C(=O)O` (centres unmarked) [PHELIX165, 12-([1,1′-biphenyl]-4-ylmethyl)-5-(sec-butyl)-2,2,9-trimethyl-4,7,8,11,14-pentaoxo-15-phenyl-3,6,10,13-tetraazapentadecanoic acid], the figures for the Ki on Cathepsin B and on Cathepsin L were 0.0736 µM and 0.453 µM, respectively.

With `CC[C@H](C)[C@H](NC(=O)C(=O)C(C)NC(=O)C(Cc1ccccc1)NC(=O)Cc1ccccc1)C(=O)N1CCC[C@H]1C(=O)O` (some centres unmarked) [PHELIX155, (2-oxo-3-(3-phenyl-2-(2-phenylacetamido)propanamido)butanoyl)isoleucylproline], the Ki at Cathepsin B is 0.0215 µM; at Cathepsin L, 0.3 µM.

In the case of `CC(NC(=O)C(Cc1ccccc1)NC(=O)Cc1ccccc1)C(=O)C(=O)NC(Cc1cccc2ccccc12)C(=O)NC(C)(C)C(=O)O` (centres unmarked) [PHELIX162, 12-benzyl-2,2,9-trimethyl-5-(naphthalen-1-ylmethyl)-4,7,8,11,14-pentaoxo-15-phenyl-3,6,10,13-tetraazapentadecanoic acid], the Ki was determined as 0.03 µM on Cathepsin B and 0.402 µM on Cathepsin L.

For the molecule `CCC(C)C(NC(=O)C(=O)C(C)NC(=O)C(Cc1cccc(C#N)c1)NC(=O)Cc1ccccc1)C(=O)NC(C)(C)C(=O)O` (centres unmarked) [PHELIX176, 5-(sec-butyl)-12-(3-cyanobenzyl)-2,2,9-trimethyl-4,7,8,11,14-pentaoxo-15-phenyl-3,6,10,13-tetraazapentadecanoic acid], the Ki at Cathepsin B amounted to 0.0378 µM; on Cathepsin L, 2.69 µM.

With `CC[C@H](C)[C@H](NC(=O)C(=O)C(C)NC(=O)Cc1ccccc1)C(=O)N1CCC[C@H]1C(=O)O` (some centres unmarked) [PHELIX138, (2-oxo-3-(2-phenylacetamido)butanoyl)isoleucylproline], the Ki at Cathepsin B stood at 27.8 µM; on Cathepsin L, 69.8 µM.

Take `CCC(C)C(NC(=O)C(=O)C(C)NC(=O)Cc1ccccc1)C(=O)NC(C)(C)C(=O)O` (centres unmarked) [PHELIX132, 2-methyl-2-(3-methyl-2-(2-oxo-3-(2-phenylacetamido)butanamido)pentanamido)propanoic acid]: the Ki stood at 702 µM at Cathepsin B and 134 µM at Cathepsin L.

`CC(NC(=O)C(Cc1ccccc1)NC(=O)Cc1ccccc1)C(=O)C(=O)NC(Cc1ccc(C(C)(C)C)cc1)C(=O)NC(C)(C)C(=O)O` [PHELIX180, (5S,12)S-12-benzyl-5-(4-(tert-butyl)benzyl)-2,2,9-trimethyl-4,7,8,11,14-pentaoxo-15-phenyl-3,6,10,13-tetraazapentadecanoic acid]: the Ki came out at 0.197 µM on Cathepsin B and 0.127 µM on Cathepsin L.

For the molecule `CCC(C)C(NC(=O)C(=O)C(C)NC(=O)C(Cc1ccccc1)NC(=O)Cc1ccc2ccccc2c1)C(=O)NC(C)(C)C(=O)O` (centres unmarked) [PHELIX161, 12-benzyl-5-(sec-butyl)-2,2,9-trimethyl-15-(naphthalen-2-yl)-4,7,8,11,14-pentaoxo-3,6,10,13-tetraazapentadecanoic acid], the Ki came out at 0.0549 µM at Cathepsin B and 1.99 µM on Cathepsin L.

Consider `CCC(C)C(NC(=O)C(=O)C(C)NC(=O)C(Cc1ccccc1)NC(=O)Cc1ccccc1)C(=O)NC(C)(C)C(=O)OC` (centres unmarked) [PHELIX179, methyl 12-benzyl-5-(sec-butyl)-2,2,9-trimethyl-4,7,8,11,14-pentaoxo-15-phenyl-3,6,10,13-tetraazapentadecanoate], for which the Ki on Cathepsin B was 17.8 µM; on Cathepsin L it was 0.881 µM.

Turning to `CC(NC(=O)C(Cc1ccccc1)NC(=O)Cc1ccccc1)C(=O)C(=O)NC(Cc1ccc2ccccc2c1)C(=O)NC(C)(C)C(=O)O` (centres unmarked) [PHELIX158, 12-benzyl-2,2,9-trimethyl-5-(naphthalen-2-ylmethyl)-4,7,8,11,14-pentaoxo-15-phenyl-3,6,10,13-tetraazapentadecanoic acid], the Ki on Cathepsin B is 0.439 µM; on Cathepsin L, 0.141 µM.

In the case of `CC(NC(=O)C(Cc1ccccc1)NC(=O)Cc1ccccc1)C(=O)C(=O)N[C@@H](Cc1ccccc1)C(=O)N1CCC[C@H]1C(=O)O` (some centres unmarked) [PHELIX178, (2-oxo-3-(3-phenyl-2-(2-phenylacetamido)propanamido)butanoyl)phenylalanyl proline], the Ki on Cathepsin B was 0.0067 µM; on Cathepsin L, 0.0386 µM.

On to `CCC(C)C(NC(=O)C(=O)C(C)NC(=O)C(Cc1ccc(C(F)(F)F)cc1)NC(=O)Cc1ccccc1)C(=O)NC(C)(C)C(=O)O` (centres unmarked) [PHELIX168, 5-(sec-butyl)-2,2,9-trimethyl-4,7,8,11,14-pentaoxo-15-phenyl-12-(4-(trifluoro-methyl)benzyl)-3,6,10,13-tetraazapentadecanoic acid], for which the Ki was 0.519 µM at Cathepsin B and 1.27 µM on Cathepsin L.

Consider `CCC(C)C(NC(=O)C(=O)C(C)NC(=O)C(Cc1ccc(F)cc1)NC(=O)Cc1ccccc1)C(=O)NC(C)(C)C(=O)O` (centres unmarked) [PHELIX172, 5-(sec-butyl)-12-(4-fluorobenzyl)-2,2,9-trimethyl-4,7,8,11,14-pentaoxo-15-phenyl-3,6,10,13-tetraazapentadecanoic acid], for which the Ki on Cathepsin B is 0.0746 µM; on Cathepsin L, 0.52 µM.

`CCC(C)C(NC(=O)C(CC(C)C)NC(=O)OCc1ccccc1)C(=O)C(=O)NC(CCCNC(=N)N)C(=O)NC(Cc1ccc2ccccc2c1)C(N)=O` (centres unmarked) [PHELIX330, benzyl (1-((1-((1-((1-amino-3-(naphthalen-2-yl)-1-oxopropan-2-yl)amino)-5-guanidino-1-oxopentan-2-yl)amino)-4-methyl-1,2-dioxohexan-3-yl)amino)-4-methyl-1-oxopentan-2-yl)carbamate]: the Ki on Calpain was determined as 0.0214 µM; on Cathepsin L, 0.00291 µM.

On to `CCC(C)C(NC(=O)C(CC1CC1)NC(=O)OCc1ccccc1)C(=O)C(=O)NCC(=O)NC(Cc1ccc2ccccc2c1)C(N)=O` (centres unmarked) [PHELIX299, benzyl (1-((1-((2-((1-amino-3-(naphthalen-2-yl)-1-oxopropan-2-yl)amino)-2-oxoethyl)amino)-4-methyl-1,2-dioxohexan-3-yl)amino)-3-cyclopropyl-1-oxopropan-2-yl)carbamate], for which the figures for the Ki at Calpain and at Cathepsin L were 0.00483 µM and 0.0123 µM, respectively.

With `CCC(C)C(NC(=O)C(CCC(N)=O)NC(=O)Cc1ccccc1)C(=O)C(=O)NCC(=O)NC(Cc1ccc2ccccc2c1)C(N)=O` (centres unmarked) [PHELIX320, N^1-(1-((2-((1-amino-3-(naphthalen-2-yl)-1-oxopropan-2-yl)amino)-2-oxoethyl)amino)-4-methyl-1,2-dioxohexan-3-yl)-2-(2-phenylacetamido)pentanediamide], the Ki on Calpain is 0.0386 µM; at Cathepsin L, 0.495 µM.

For the molecule `CCC(C)C(NC(=O)C(CC(C)C)NC(=O)CN1CCOCC1)C(=O)C(=O)NC(Cc1ccc2ccccc2c1)C(N)=O` (centres unmarked) [PHELIX354, N-(1-amino-3-(naphthalen-2-yl)-1-oxopropan-2-yl)-4-methyl-3-(4-methyl-2-(2-morpholinoacetamido)pentanamido)-2-oxohexanamide], the Ki at Calpain worked out at 0.0101 µM; on Cathepsin L, 0.0196 µM.

With `CCC(C)C(NC(=O)C(CC(C)C)NC(=O)CN1CCOCC1)C(=O)C(=O)NCC(=O)N(C)C(Cc1ccccc1)C(N)=O` (centres unmarked) [PHELIX352, N-(2-((1-amino-1-oxo-3-phenylpropan-2-yl)(methyl)amino)-2-oxoethyl)-4-methyl-3-(4-methyl-2-(2-morpholinoacetamido)pentanamido)-2-oxohexanamide], the figures for the Ki at Calpain and on Cathepsin L were 0.00193 µM and 0.00048 µM, respectively.

As to `CCC(C)C(NC(=O)C(CC(C)C)NC(=O)C(Cc1ccccc1)NC(C)=O)C(=O)C(=O)NC(CCCNC(=N)N)C(N)=O` (centres unmarked) [PHELIX345], the Ki at Calpain came to 0.0371 µM; at Cathepsin L, 0.0113 µM.

Take `CCC(C)C(NC(=O)C(CC(C)C)NC(=O)C(Cc1ccccc1)NC(=O)OCc1ccccc1)C(=O)C(=O)NC(CCCNC(=N)N)C(N)=O` (centres unmarked) [PHELIX294, benzyl (1-amino-10-(sec-butyl)-6-carbamoyl-1-imino-13-isobutyl-8,9,12,15-tetraoxo-17-phenyl-2,7,11,14-tetraazaheptadecan-16-yl)carbamate]: the Ki at Calpain was found to be 0.00049 µM; on Cathepsin L it was 0.00253 µM.

For the molecule `CC[C@H](C)C(NC(=O)[C@H](CC(C)C)NC(=O)OCc1ccccc1)C(=O)C(=O)NCC(=O)N[C@H](Cc1ccc2ccccc2c1)C(N)=O` (some centres unmarked) [PHELIX304, benzyl (1-((1-((2-((1-amino-3-(naphthalen-2-yl)-1-oxopropan-2-yl)amino)-2-oxoethyl)amino)-4-methyl-1,2-dioxohexan-3-yl)amino)-4-methyl-1-oxopentan-2-yl)carbamate], the Ki at Calpain came out at 0.00824 µM; on Cathepsin L it was 0.0006 µM.

`CCC(C)C(NC(=O)C(CC(C)C)NC(=O)OCc1ccccc1)C(=O)C(=O)NCC(=O)NC(Cc1ccc(F)cc1)C(N)=O` (centres unmarked) [PHELIX349, benzyl (1-((1-((2-((1-amino-3-(4-fluorophenyl)-1-oxopropan-2-yl)amino)-2-oxoethyl)amino)-4-methyl-1,2-dioxohexan-3-yl)amino)-4-methyl-1-oxopentan-2-yl)carbamate]: the Ki on Calpain is 0.00227 µM; at Cathepsin L, 0.00211 µM.
